Consider 35 molecules from the Kinase Knowledgebase extract (Sharma et al. 2016).

For the assay, the target named is MAPK14 (human) (UniProt Q16539). Description: Inhibition of MAPK14 Kinase Activity. The conditions noted are these: for inhibition: concentration not given here.

For orientation: pIC50 means the negative decadic logarithm of the IC50, by convention in mol/L. Higher therefore signals a low IC50. Broadly, the inhibition is the percentage by which the read-out fell short of the control.

pIC50: −log10 of the molar value.

Chain of MAPK14 (human) (Q16539 whole entry, looked up): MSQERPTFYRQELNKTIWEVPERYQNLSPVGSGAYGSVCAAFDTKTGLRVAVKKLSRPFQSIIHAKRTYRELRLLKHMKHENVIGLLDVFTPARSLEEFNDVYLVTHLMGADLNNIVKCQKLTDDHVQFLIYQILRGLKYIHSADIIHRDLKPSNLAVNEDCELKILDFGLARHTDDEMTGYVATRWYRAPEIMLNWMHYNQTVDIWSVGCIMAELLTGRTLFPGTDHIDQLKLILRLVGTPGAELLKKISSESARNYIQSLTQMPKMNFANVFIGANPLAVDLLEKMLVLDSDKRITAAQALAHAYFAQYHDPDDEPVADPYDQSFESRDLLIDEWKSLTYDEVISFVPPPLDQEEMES

For the molecule `CC1(C)C(=O)NCCN1C(=O)c1oc(C(F)(F)F)cc1NC(=O)Nc1ccc(F)c(Cl)c1Cl`, the pIC50 was > 5.30.

Consider `Cc1cccc(NC(=O)Nc2sc(C(C)(C)C)cc2C(=O)N2CCC(=O)N(CCN(C)C)CC2)c1Cl`, for which the pIC50 was > 5.30.

For `CC(C)(C)c1cc(C(=O)N2CCN(C(=O)N3CCOCC3)CC2)c(NC(=O)Nc2cccc(Cl)c2Cl)s1`, the pIC50 is > 5.30.

On to `CON(C)C(=O)CN1CCN(C(=O)c2cc(C(C)(C)C)sc2NC(=O)Nc2ccc(F)c(F)c2Cl)C(C)(C)C1=O`, for which the pIC50 was > 5.30.

Regarding `COC(=O)CN1CCN(C(=O)c2nc(C(C)(C)C)sc2NC(=O)Nc2cccc(Cl)c2Cl)C(C)(C)C1=O`, the negative logarithm of the IC50 (pIC50) is > 5.30.

As to `CN(C)CCNC(=O)CN1CCN(C(=O)c2cc(C(C)(C)C)sc2NC(=O)Nc2ccc(F)c(Cl)c2Cl)C(C)(C)C1=O`, the pIC50 was > 5.30.

Consider `CC(C)(C)c1cc(C(=O)N2CCNC(=O)CC2)c(NC(=O)Nc2ccccc2C(F)(F)F)s1`, for which the pIC50 was > 5.30.

For the molecule `CC(C)(C)c1cc(C(=O)N2CCNC(=O)CC2)c(NC(=O)Nc2ccc(C#N)c(Cl)c2Cl)s1`, the pIC50 was > 5.30.

Turning to `CCC1(C)C(=O)N(C)CCN1C(=O)c1cc(C(C)(C)C)sc1NC(=O)Nc1cccc(Cl)c1Cl` (stereo not given), the pIC50 was > 5.30.

Consider `CN(C)CCN1CCN(C(=O)c2cc(C(C)(C)C)sc2NC(=O)Nc2ccc(F)c(F)c2Cl)C(C)(C)C1=O`, for which the pIC50 is > 5.30.

Turning to `CC(C)(C)c1cc(C(=O)N2CCNC(=O)C2(C)C)c(NC(=O)Nc2ccc(Cl)cc2Cl)s1`, the pIC50 is > 5.30.

In the case of `CC(C)(C)c1cc(C(=O)N2CCNC(=O)CC2)c(NC(=O)Nc2ccccc2I)s1`, the negative logarithm of the IC50 (pIC50) was > 5.30.

Regarding `O=C(Nc1cc(C(=O)N2CCS(=O)(=O)CC2)cc(C(F)(F)F)c1)Nc1cccc(Cl)c1Cl`, the pIC50 was > 5.30.

For the molecule `CON(C)C(=O)CN1CCN(C(=O)c2cc(C(C)(C)C)sc2NC(=O)Nc2cccc(Cl)c2Cl)C(C)(C)C1=O`, the pIC50 is > 5.30.

`CN1CCN(C(=O)c2oc(C(C)(C)C)cc2NC(=O)Nc2cccc(Cl)c2Cl)CCS1(=O)=O`: the pIC50 was > 5.30.

As for `COc1ccccc1NC(=O)Nc1sc(C(C)(C)C)cc1C(=O)N1CCN(CCN(C)C)C(=O)C1(C)C`, the pIC50 was > 5.30.

Molecule `CC(C)(C)c1cc(C(=O)N[C@@H]2CC(=O)NC2=O)c(NC(=O)Nc2ccc3ccccc3c2)s1` yielded an inhibition of 76 to 100%.

Regarding `COC(=O)CN1CCN(C(=O)c2[nH]c(C(C)(C)C)cc2NC(=O)Nc2cccc(Cl)c2Cl)C(C)(C)C1=O`, the pIC50 was > 5.30.

With `Cc1cccc(Cl)c1NC(=O)Nc1cc(C(C)(C)C)sc1C(=O)N1CCNC(=O)C1(C)C`, the pIC50 was > 5.30.

As to `CC(C)(C)c1cc(C(=O)N2CCN(CCO)C(=O)C2(C)C)c(NC(=O)Nc2cccc(Cl)c2Cl)s1`, the negative-log IC50 (pIC50) is > 5.30.

Take `CC(C)(C)c1cc(C(=O)N2CCNC(=O)C2(C)C)c(NC(=O)Nc2ccc(C#N)c(Cl)c2Cl)s1`: the pIC50 was > 5.30.

For `CC(C)(C)c1cc(C(=O)N2CCN(CC(O)CO)C(=O)C2(C)C)c(NC(=O)Nc2cccc(Cl)c2Cl)s1` (stereo not given), the pIC50 is > 5.30.

On to `CC(C)(C)c1cc(C(=O)N2CCNC(=O)C2)c(NC(=O)Nc2cccc(Cl)c2Cl)s1`, for which the pIC50 is > 5.30.

Regarding `CCC1(C)C(=O)N(CC(=O)NCCN2CCOCC2)CCN1C(=O)c1cc(C(C)(C)C)sc1NC(=O)Nc1cccc(Cl)c1Cl` (stereo not given), the pIC50 is > 5.30.

For `CC(C)(C)c1cc(NC(=O)Nc2ccc(F)c(Cl)c2Cl)c(C(=O)N2CCNC(=O)C2(C)CCO)s1` (stereo not given), the pIC50 is > 5.30.

On to `CC(C)(C)c1cc(C(=O)N2CCNC(=O)C2)c(NC(=O)Nc2ccc3c(c2)OCO3)s1`, for which the pIC50 was > 5.30.

Regarding `Cc1ccccc1NC(=O)Nc1sc(C(C)(C)C)cc1C(=O)N1CCNC(=O)CC1`, the pIC50 is > 5.30.

`CC(C)(C)c1cc(NC(=O)Nc2cccc(Cl)c2Cl)c(C(=O)N2CCS(=O)(=O)CC2)o1`: the pIC50 is > 5.30.

With `CC(C)(C)c1cc(C(=O)N2CCNC(=O)C2)c(NC(=O)Nc2cccc3c2OCO3)s1`, the pIC50 is > 5.30.

Regarding `CCC1(C)C(=O)N(CC(=O)NCCN(C)C)CCN1C(=O)c1cc(C(C)(C)C)sc1NC(=O)Nc1ccc(F)c(Cl)c1Cl` (stereo not given), the pIC50 is > 5.30.

`CC(C)(C)c1cc(C(=O)N2CCNC(=O)CC2)c(NC(=O)Nc2ccc3ncoc3c2)s1` yielded an inhibition of 76 to 100%.

With `CC(C)(C)c1cc(C(=O)N2CCNC(=O)C2(C)CC(=O)O)c(NC(=O)Nc2cccc(Cl)c2Cl)s1` (stereo not given), the pIC50 is > 5.30.

As to `CC(C)(C)c1cc(C(=O)N2CCNC(=O)C2)c(NC(=O)Nc2cccc3ccccc23)s1`, the inhibition was 76 to 100%.

For `CON(C)C(=O)CN1CCN(C(=O)c2cc(C(C)(C)C)sc2NC(=O)Nc2ccc(F)cc2Cl)CCC1=O`, the pIC50 is > 5.30.

Turning to `Cc1noc(CN2CCN(C(=O)c3cc(C(C)(C)C)sc3NC(=O)Nc3ccc(F)c(Cl)c3Cl)C(C)(C)C2=O)n1`, the pIC50 is > 5.30.
